Consider 45 compounds from patent publication US20180009797A1, “AZA-ARYL 1H-PYRAZOL-1-YL BENZENE SULFONAMIDES” (ChemoCentryx, Inc., priority 2016, published 2018).

A value given as a limit tells only on which side of the number the result lay.

The target in assay [1] is T1, CCR(9) (Homo sapiens, UniProt P51686).
T1 construct: CCR(9)-expressing cells such as T cell line MOLT-4 cells; host or cells: MOLT-4 T cell line
T1 sequence (P51686 1-369): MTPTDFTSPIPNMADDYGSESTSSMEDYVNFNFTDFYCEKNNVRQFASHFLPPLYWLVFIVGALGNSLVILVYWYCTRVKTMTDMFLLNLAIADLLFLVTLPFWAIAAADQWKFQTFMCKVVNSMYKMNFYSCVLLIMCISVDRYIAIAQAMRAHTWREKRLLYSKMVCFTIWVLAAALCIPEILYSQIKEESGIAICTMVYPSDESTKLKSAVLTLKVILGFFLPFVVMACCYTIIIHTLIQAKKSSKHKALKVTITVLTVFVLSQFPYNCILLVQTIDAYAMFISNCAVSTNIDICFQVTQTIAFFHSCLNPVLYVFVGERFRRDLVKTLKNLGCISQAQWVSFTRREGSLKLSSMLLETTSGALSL
Kind of assay: calcium mobilization assay (FLIPR, MOLT-4 cells, hTECK). It counts as cell-based. Conditions: read-out: CCR(9) Ca^2+. The procedure: In calcium signaling assays used to determine the ability of a compound to interfere with binding between a chemokine receptor and a known chemokine ligand, chemokine receptor-expressing cells (CCR(9)-expressing cells such as T cell line MOLT-4 cells) are first incubated with a compound of interest, such as a potential chemokine antagonist, at increasing concentrations. The cell number can be from 10^5 to 5×10^6 cells per well in a 96-well microtiter plate. The concentration of the compound being tested may range from 0 to 100 μM. After a period of incubation (which can range from 5 to 60 minutes), the treated cells are placed in a Fluorometric Imaging Plate Reader (FLIPR®) (available from Molecular Devices Corp., Sunnyvale, Calif.) according to the manufacturer's instruction. The FLIPR® system is well known to those skilled in the art as a standard method of performing assays. The cells are then stimulated with an appropriate amount of the chemokine ligand (TECK for CCR(9)) at 5-100 nM final concentration, and the signal of intracellular calcium increase (also called calcium flux) is recorded. The efficacy of a compound as an inhibitor of binding between the chemokine and the ligand can be calculated as an IC50 (the concentration needed to cause 50% inhibition in signaling) or IC90 (at 90% inhibition).
(§1) MOLT-4 cells were obtained from the American Type Culture Collection (Manassas, Va.) and cultured in RPMI tissue culture medium supplemented with 10% fetal calf serum (FCS) in a humidified 5% CO2 incubator at 37° C. Recombinant human chemokine proteins TECK was obtained from R&D Systems (Minneapolis, Minn.). ChemoTX® chemotaxis microchambers were purchased from Neuro Probe (Gaithersburg, Md.). CyQUANT® cell proliferation kits were purchased from Molecular Probes (Eugene, Oreg.). Calcium indicator dye Fluo-4 AM was purchased from Molecular Devices (Mountain View, Calif.).
A cytoplasmic calcium mobilization assay was used to determine the efficacy of potential receptor antagonists at blocking the signals mediated through chemokine receptors, such as CCR(9). This assay was routinely performed using the Fluorescent Imaging Plate Reader (FLIPR, Molecular Devices). MOLT-4 cells were labeled with the fluorescent-indicator dye Fluo-4 (Molecular Devices) according to the manufacturer's directions. After labeling, the cells were collected by centrifugation (400×g for 5 min at room temperature) and resuspended in HBSS to a cell density of 2.5×10^6 cells/mL. Test compounds were prepared in 100% DMSO at 100× the final concentration; generally, a range of concentrations of each compound were tested, with final concentrations from 0.1 nM to 10,000 nM. Labeled cells (300 μL) were mixed with compound or an equal volume of DMSO (3 μL) in a 96-well plate; after thorough mixing, 50 μL of this cell/compound mixture was added to each of four wells of a 384-well FLIPR plate. The chemokine agonist (i.e., hTECK), prepared in HBSS at a 5× concentration of the previously determined EC^50 concentration, was added to each well and resulting changes in the fluorescent intensity, indicative of chemokine receptor-mediated signaling, were recorded on the FLIPR.
(A change in cytosolic calcium serves as a functional read-out for many receptors and channels.)

Assay [2] deals with T1, CCR(9). Kind of assay: serum chemotaxis (serum migration) assay, MOLT-4 cells in human serum, TECK. Conditions: read-out: A2. It counts as cell-based. The procedure: In vitro cell chemotaxis assays can be performed (but are not limited to this format) using the 96-well microchamber (called ChemoTX™). The ChemoTX™ system is well known to those skilled in the art as a type of chemotactic/cell migration instrument. In this assay, CCR(9)-expressing cells (such as MOLT-4) are first incubated with a compound of interest, such as a possible CCR(9) antagonist at increasing concentrations. Typically, fifty thousand cells per well are used, but the amount can range from 10^3-10^6 cells per well. The chemokine ligand (for example, CCR(9) ligand TECK, typically at 50 nM (but can range from 5-100 nM)), is placed at the lower chamber and the migration apparatus is assembled. Twenty microliters of test compound-treated cells are then placed onto the membrane. Migration is allowed to take place at 37° C. for a period of time, typically 2.5 hours for CCR(9). At the end of the incubation, the number of cells that migrated across the membrane into the lower chamber is then quantified. The efficacy of a compound as an inhibitor of chemokine-mediated cell migration can be calculated as an IC50 (the concentration needed to reduce cell migration by 50%) or IC90 (for 90% inhibition).
as §1
A serum chemotaxis assay was used to determine the efficacy of potential receptor antagonists at blocking the migration mediated through chemokine receptors, such as CCR(9). This assay was performed using the ChemoTX® microchamber system with a 5-μm pore-sized polycarbonate membrane. MOLT-4 cells were collected by centrifugation at 400×g at room temperature, then suspended at 50 million/ml in human serum, containing 50 mM HEPES (final pH of 7.2). The compound being tested or an equivalent volume of its solvent (DMSO) was then added to the cell/serum mixture at a final DMSO concentration of 0.125% (v/v), and this mixture was then incubated together at 37° C. for one hour. Separately, recombinant human TECK was diluted with chemotaxis buffer (HBSS+0.1% BSA), generally spanning a range from 0.1 nM to 500 nM, after which 29 μl of diluted chemokine was placed in the lower wells of the ChemoTX® plate. The 5-μm (pore size) polycarbonate membrane was placed onto the plate, and 20 μL of the cell/compound mixture was transferred onto each well of the membrane. The plates were incubated at 37° C. for 90 minutes, after which the polycarbonate membranes were removed and 5 μl of the DNA-intercalating agent CyQUANT (Invitrogen, Carlsbad, Calif.) was added to the lower wells. The amount of fluorescence, corresponding to the number of migrated cells, was measured using a Spectrafluor Plus plate reader (TECAN, San Jose, Calif.).
The A2 values were calculated from the following equation, comparing the efficacy of the test compound with that of the DMSO-only control at equi-active chemokine levels:
Log(A2)=log [drug(M)]−log [(A′/A)−1]
where A reflects the potency of the agonist in the absence of antagonist and […] reflects the potency of the agonist in the presence of antagonist at a given concentration of drug ([drug(M)]).

Consider `Cc1cc(NS(=O)(=O)c2ccc(C(C)(C)C)cc2)n(-c2ccc(Cl)c3nccc(C)c23)n1`, for which the IC50 on CCR(9) [1] is < 100 nM.
Still for that read-out and setting: under `Cc1nn(-c2cccc3ncccc23)c(NS(=O)(=O)c2ccc(C(C)(C)C)cc2)c1F` stands < 100 nM.
On the same count and under the same terms, as for `CC(C)(C)c1ccc(S(=O)(=O)Nc2cc(C(C)(F)F)nn2-c2cccc3ncccc23)cc1`, the figure is < 100 nM; as for `COc1ccc2ncccc2c1-n1nc(C)cc1NS(=O)(=O)c1ccc(C(C)(C)C)cc1`, < 100 nM.
Same read-out and setting: under `Cc1cc(NS(=O)(=O)c2ccc3c(c2)CCC3(C)C)n(-c2cccc3ncccc23)n1` stands < 100 nM; under `Cc1cc(NS(=O)(=O)c2ccc(C3(C#N)CC3)cc2)n(-c2cccc3ncccc23)n1`, < 100 nM.
Take `CCc1ccc(S(=O)(=O)Nc2cc(C)nn2-c2cccc3ncccc23)cc1`: at CCR(9) [1], the IC50 is < 100 nM.
The same measure, in the same setting: as for `Cc1cc(NS(=O)(=O)c2ccc(C(C)(C)C)cc2)n(-c2c(C)ccc3ncccc23)n1`, the figure is < 100 nM.
On the same count and under the same terms, as for `COc1ccc(S(=O)(=O)Nc2cc(C)nn2-c2cccc3ncccc23)cc1`, the figure is 100 to 1000 nM; as for `Cc1cc(NS(=O)(=O)c2ccc(C(C)(C)C)cc2)n(-c2ccnc3ccc(F)cc23)n1`, < 100 nM; as for `Cc1cnc2cccc(-n3nc(C)cc3NS(=O)(=O)c3ccc(C(C)(C)C)cc3)c2c1`, 100 to 1000 nM.
Take `Cc1cc(NS(=O)(=O)c2ccc(C(C)(C)C)cc2)n(-c2ncc(C)c3ccccc23)n1`: the IC50 on CCR(9) [1] is < 100 nM.
Still for that read-out and setting: under `CC(C)c1ccc(S(=O)(=O)Nc2cc(C(C)(F)F)nn2-c2cccc3ncccc23)cc1` stands < 100 nM.
Still for that read-out and setting: as for `Cc1cc(NS(=O)(=O)c2ccc(C(C)(C)O)cc2)n(-c2cccc3ncccc23)n1`, the figure is < 100 nM; as for `Cc1cc(NS(=O)(=O)c2ccc(C(C)(C)C)cc2)n(-c2cccc3nccc(C)c23)n1`, < 100 nM; as for `Cc1cc(NS(=O)(=O)c2ccc(N3CCOCC3)cc2)n(-c2cccc3ncccc23)n1`, < 100 nM.
Take `Cc1cc(NS(=O)(=O)c2ccc(OC(C)C)cc2)n(-c2cccc3ncccc23)n1`: on CCR(9) [2], the EC50 was in the range of 501 to 2500 nM.
As to `CCC(C)(C)c1ccc(S(=O)(=O)Nc2cc(C)nn2-c2cccc3ncccc23)cc1`, the EC50 at CCR(9) [2] fell in the range of 501 to 2500 nM.
The same measure, in the same setting: as for `Cc1cc(NS(=O)(=O)c2ccc(C(C)(C)C)cc2)n(-c2cccc3nc(N)ccc23)n1`, the figure is < 500 nM.
As for `Cc1cc(NS(=O)(=O)c2ccc(C(C)(C)C)cc2)n(-c2nccc3ncccc23)n1`, the EC50 at CCR(9) [2] lay within 501 to 2500 nM.
On the same count and under the same terms, as for `COCc1cc(NS(=O)(=O)c2ccc(C(C)(C)C)cc2)n(-c2cccc3ncccc23)n1`, the figure is < 500 nM.
On to `CC(C)Oc1ccc(S(=O)(=O)Nc2cc(C(F)F)nn2-c2cccc3ncccc23)cc1`, for which the EC50 at CCR(9) [2] was < 500 nM.
On the same count and under the same terms, as for `CC(C)Oc1ccc(S(=O)(=O)Nc2cc(C(F)(F)F)nn2-c2cccc3ncccc23)cc1`, the figure is > 2500 nM; as for `Cc1cc(NS(=O)(=O)c2ccc(C(C)(C)C)cc2)n(-c2ccnc3c(F)cccc23)n1`, 501 to 2500 nM.
The same measure, in the same setting: as for `Cc1cc(NS(=O)(=O)c2ccc(C(C)(C)C)c(F)c2)n(-c2cccc3nc(N)ccc23)n1`, the figure is < 500 nM.
Same read-out and setting: under `Cc1cc(NS(=O)(=O)c2ccc(C(C)(C)C)cc2)n(-c2nccc3ccccc23)n1` stands 501 to 2500 nM.
As to `CC(C)(C)c1ccc(S(=O)(=O)Nc2cc(C#N)nn2-c2cccc3ncccc23)cc1`, the EC50 at CCR(9) [2] is 501 to 2500 nM.
For the compound `Cc1cc(NS(=O)(=O)c2ccc(C(C)(C)C)c(F)c2)n(-c2cccc3ncccc23)n1`, the EC50 on CCR(9) [2] was < 500 nM.
Still for that read-out and setting: under `CCOc1ccc(-n2nc(C)cc2NS(=O)(=O)c2ccc(C(C)(C)C)cc2)c2cccnc12` stands 501 to 2500 nM; under `CC(C)Oc1ccc(S(=O)(=O)Nc2cc(CF)nn2-c2cccc3ncccc23)cc1`, 501 to 2500 nM.
Still for that read-out and setting: as for `Cc1cc(NS(=O)(=O)c2ccc(C(C)(C)C)cc2)n(-c2cccc3cnccc23)n1`, the figure is 501 to 2500 nM.
The same measure, in the same setting: under `Cc1cc(NS(=O)(=O)c2ccc(C(C)(C)C)cc2)n(-c2cc(N)nc3ccccc23)n1` stands 501 to 2500 nM; under `Cc1cc(NS(=O)(=O)c2ccc(C(C)(C)C)c(F)c2)n(-c2ccc(N)c3ncccc23)n1`, 501 to 2500 nM.
Consider `COc1ccc(-n2nc(C)cc2NS(=O)(=O)c2ccc(C(C)(C)C)cc2)c2cccnc12`, for which the EC50 at CCR(9) [2] was < 500 nM.
Still for that read-out and setting: under `CC(C)(C)c1ccc(S(=O)(=O)Nc2cc(C(F)F)nn2-c2cccc3ncccc23)cc1` stands < 500 nM; under `Cc1cc(NS(=O)(=O)c2ccc(OCC(C)C)cc2)n(-c2cccc3ncccc23)n1`, > 2500 nM; under `Cc1cc(-n2nc(C)cc2NS(=O)(=O)c2ccc(C(C)(C)C)cc2)c2ccccc2n1`, 501 to 2500 nM.
Same read-out and setting: under `Cc1cc(NS(=O)(=O)c2ccc(C(C)C)cc2)n(-c2cccc3ncccc23)n1` stands 501 to 2500 nM; under `Cc1cc(NS(=O)(=O)c2ccc(C(C)(C)C)cc2)n(-c2ncc(Cl)c3ccccc23)n1`, > 2500 nM.
On to `Cc1cc(NS(=O)(=O)c2ccc(C(C)(C)C)cc2)n(-c2cccc3c[n+]([O-])ccc23)n1`, for which the EC50 at CCR(9) [2] was > 2500 nM.
The same measure, in the same setting: as for `CC(C)(C)c1ccc(S(=O)(=O)Nc2cc(C(F)F)nn2-c2cccc3ncccc23)cc1F`, the figure is 501 to 2500 nM; as for `CC(C)c1ccc(S(=O)(=O)Nc2cc(C(F)F)nn2-c2cccc3ncccc23)cc1`, 501 to 2500 nM.
Same read-out and setting: as for `Cc1cc(NS(=O)(=O)c2ccc(C(C)C)cc2)n(-c2cccc3cnccc23)n1`, the figure is 501 to 2500 nM; as for `Cc1cc(NS(=O)(=O)c2ccc(C(C)(C)C)cc2)n(-c2cccc3c2ccc[n+]3[O-])n1`, 501 to 2500 nM.
Regarding `COc1cnc(-n2nc(C)cc2NS(=O)(=O)c2ccc(C(C)(C)C)cc2)c2ccccc12`, the EC50 on CCR(9) [2] lay in the range of 501 to 2500 nM.
